# US4866161A, “Inhibition of tartar deposition by polyanionic/hydrophobic peptides and derivatives thereof which have a clustered block copolymer structure” (University of South Alabama, priority 1987, dated 1989)
# Where two headings read alike, the source gives them in different places. Ends that are not written are not given here.
# Tests used:
# [1] = pH-drift assay, calcium phosphate
# Experimental: A solution supersaturated with respect to calcium phosphate is prepared by separately pipetting 0.1 ml of 1.32 M CaCl2 dihydrate and 0.1 ml of 0.90 M NaHl PO4 into 29.8 ml of distilled water. This yields initial concentrations of 4.4 mM Ca^2+ and 3.0 mM dissolved inorganic phosphorus (DIP). The reaction vessel is a 50 ml, round-bottom, 3-necked flask partially immersed in a thermostated water bath at 20° C. The reaction vessel is closed to the atmosphere. The reaction begins upon mixing the reactants with an initial pH of 7.4.
# Amorphous calcium phosphate (ACP) nucleates immediately and slowly grows as indicated by a slight decrease in pH during the first 30 minutes or so of the assay. Following this, ACP begins to transform to calcium hydroxylapatite (HAP), Ca10 (PO4)6 (OH)2, as indicated by a marked acceleration in the downward pH drift. The reaction ceases as reactants are depleted and the pH is lowered.
# ^1 Assay Conditions: Ca at 4.4 mM, dissolved inorganic phosphorus at […]
# [2] = pH-drift assay, calcium carbonate
# Experimental: A solution supersaturated with respect to CaCO03 is prepared by separately pipetting 0.3 ml of 1.0 M CaCl2 dihydrate and 0.6 ml of 0.5 M NaHCO3 into 29.1 ml of artificial seawater (0.5 NaCl, 0.011 M KCl). The reaction vessel is a 50 ml, 3-necked, round-bottom flask partially immersed in a thermostated water bath at 20° C. The reaction vessel is closed to the atmosphere to minimize exchange of CO2 The reaction is started by adjusting the pH upward to 8.3 by titration of μl amounts of 1 N NaOH by digital pipette. The initial concentrations are 10 mM each of Ca^2+ and dissolved inorganic carbon (DIC). The reaction is monitored by pH electrode and recorded by strip chart.
# The reaction may be quantified by calculations based on DIC equilibria to give the amount of precipitation versus time.
# The conditions of the assay were […] dissolved inorganic carbon at 20° C. and 30 ml of artificial seawater (0.5 M NaCl, 0.01 M KCl).
# [3] = constant composition assay, CaCO3; conditions: FIG. 5, pH 8.30 held constant, 20° C., doses matched for about 2 hours stabilization
# Experimental: A 50 ml solution of 10 mM CaCl2 and 10 mM dissolved inorganic carbon (DIC) was adjusted to pH 8.34 by digital pipetting of μl amounts of 1 N NaOH. The temperature was held constant at 20° C. using a water-jacketed reaction vessel and a thermostated bath. After about a 6 minute period during which CaCO3 nucleation occurs, the pH beings to drift downward as Ca^2+ and CO3^2- ions are removed from solution as solid crystals. At pH 8.30, inhibitors were added which stabilized the pH drift for certain periods of time. The concentrations of inhibitors used in the experiments shown in FIG. 5 were matched so that the amount of stabilization or inhibition of nucleation was the same, in this case about 2 hours. The doses required for this effect ranged between 0.1 to 0.5 μg/ml of inhibitor depending on the type When crystallization began again, the pH would drift downward. However, it was held constant at pH 8.30±0.02 by automatic titration of 0.5 M CaCl2 and 0.5 M NaCO3 from separate burettes linked via the pH electrode to a computer-assisted titrimeter.
# [4] = inhibitor 37 μg/ml; adapted from Hay et al. 1979; cited from earlier work
molecule,measurement,setting,value
"O=P(O)(O)CN(CCN(CP(=O)(O)O)CP(=O)(O)O)CCN(CP(=O)(O)O)CP(=O)(O)O [DENTPP, diethylene triamine pentamethylene phosphonic acid]",PERIOD OF ACP FORMATION,[1]; inhibitor 5 μg/ml,100 min
same,"pH/min, ACP FORMATION",[1]; inhibitor 5 μg/ml,0.0012 pH/min
same,"pH/min, APATITE FORMATION",[1]; inhibitor 5 μg/ml,0.019 pH/min
AAAAAAAAAADDDDDDDDDD [H--(Ala)10 --(Asp)10 --OH],"inhibitory activity on CaCO3 crystallization, comparison of Table 1 in words",[2]; Table 1,decreased activity
"AAAAAAGDGDGDGDGDGDGD [H--(ALA)6 --(GLY-13 ASP)7 --OH, poly (Asp-Gly)7 (Ala)6]","inhibition of crystal nucleation (duration of induction period), in words","[2]; FIG. 6, equal doses, artificial seawater, 20° C.",very little activity relative to the control curve
same,CRYSTAL GROWTH RATE,[2]; peptide 0.20 μg/ml,0.048 ± 0.0042 pH/MIN
same,INDUCTION PERIOD,[2]; peptide 0.20 μg/ml,7.2 ± 0.83 min
"DDDDDDDDDDDDDDDDDDDD [H--(ASP)20--OH, poly (Asp)20]",CRYSTAL GROWTH RATE,[2]; peptide 0.02 μg/ml,0.047 ± 0.0030 pH/MIN
same,INDUCTION PERIOD,[2]; peptide 0.02 μg/ml,21.5 ± 0.50 min
same,CRYSTAL GROWTH RATE,[2]; peptide 0.035 μg/ml,0.041 ± 0.0050 pH/MIN
same,INDUCTION PERIOD,[2]; peptide 0.035 μg/ml,39.2 ± 10.8 min
same,INDUCTION PERIOD,[2]; peptide 0.050 μg/ml,> 180 min
GDGDGDGDGDGDGDGDGDGD [H--(GLY--ASP)10 --OH],CRYSTAL GROWTH RATE,[2]; peptide 0.1 μg/ml,0.047 ± 0.0097 pH/MIN
same,INDUCTION PERIOD,[2]; peptide 0.1 μg/ml,36.0 ± 5.20 min
GSDGSDGSDGSDGSDGSDGSD [H--(GLY--SER--ASP)7 --OH],CRYSTAL GROWTH RATE,[2]; peptide 0.1 μg/ml,0.057 ± 0.0034 pH/MIN
same,INDUCTION PERIOD,[2]; peptide 0.1 μg/ml,5.83 ± 1.04 min
H--(ALA)10 (ASP)15 --OH,CRYSTAL GROWTH RATE,[2]; peptide 0.050 μg/ml,0.042 ± 0.0039 pH/MIN
same,INDUCTION PERIOD,[2]; peptide 0.050 μg/ml,32.0 ± 10.4 min
"Polyaspartate [Polyaspartate, MW 15,000]","pH/min, ACP FORMATION",[1]; inhibitor 10 μg/ml,0.0040 pH/min
same,"pH/min, APATITE FORMATION",[1]; inhibitor 10 μg/ml,0.106 pH/min
same,PERIOD OF ACP FORMATION,"[1]; inhibitor 10 μg/ml, Ca 4.4 mM, DIP 3.0 mM, initial pH 7.40, 20° C.",30 min
same,PERIOD OF ACP FORMATION,[1]; inhibitor 15 μg/ml,48 min
same,"pH/min, ACP FORMATION",[1]; inhibitor 15 μg/ml,0.0050 pH/min
same,"pH/min, APATITE FORMATION",[1]; inhibitor 15 μg/ml,0.070 pH/min
Polyaspartate [matrix analog],rate of crystallization after the period of stabilization,[3],not observed
SDSDSDSDSDSDSDSDSDSD [H--(SER--ASP)10 --OH],CRYSTAL GROWTH RATE,[2]; peptide 0.1 μg/ml,0.048 ± 0.0040 pH/MIN
same,INDUCTION PERIOD,[2]; peptide 0.1 μg/ml,29.8 ± 4.99 min
"Statherin: salivary protein, most effective inhibitor among salivary proteins that regulate mineral deposition in the oral cavity (DSSEEKFLRRIGRFGYGYGPYQPVPEQPLYPQPYQPQYQQYTF; UniProt P02808 20-62, looked up)",PERIOD OF ACP FORMATION,[4],48 min
same,"pH/min, ACP FORMATION",[4],0.0045 pH/min
same,"pH/min, APATITE FORMATION",[4],0.0090 pH/min
